The record followed here is patent publication US9181241B2, “Antagonists of chemokine receptors” (ChemoCentryx, Inc., priority 2012, dated 2015).

Bounds are passed on as bounds.

The assay deals with T1, CCR1 (Homo sapiens, UniProt P32246).
T1 construct: host or cells: THP-1 cells or isolated human CD14+ monocytes
T1 sequence (P32246 1-355): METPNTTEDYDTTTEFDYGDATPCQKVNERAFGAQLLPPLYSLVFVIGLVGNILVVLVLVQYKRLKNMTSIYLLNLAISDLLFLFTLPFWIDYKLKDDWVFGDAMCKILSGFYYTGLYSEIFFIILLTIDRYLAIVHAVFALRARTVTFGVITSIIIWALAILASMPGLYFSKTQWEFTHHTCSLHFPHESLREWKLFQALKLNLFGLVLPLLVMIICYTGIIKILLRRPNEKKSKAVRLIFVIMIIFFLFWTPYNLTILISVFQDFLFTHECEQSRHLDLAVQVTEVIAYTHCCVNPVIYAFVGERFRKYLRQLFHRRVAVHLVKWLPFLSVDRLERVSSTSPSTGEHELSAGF
The assay is described as follows: Chemotaxis assay (CTX): inhibition of CCR1 mediated migration of THP-1 or monocyte cells. It counts as cell-based. Conditions: class symbols; activity for either the chemotaxis assay or binding assay. As for the experimental part: THP-1 cells were obtained from ATCC (TIB-202) and cultured as a suspension in RPMI-1640 medium supplemented with 2 mM L-glutamine, 1.5 g/L sodium bicarbonate, 4.5 g/L glucose, 10 mM HEPES, 1 mM sodium pyruvate, 0.05% 2-mercaptoethanol and 10% FBS. Cells were grown under 5% CO2/95% air, 100% humidity at 37° C. and subcultured twice weekly at 1:5 (cells were cultured at a density range of 2×10^5 to 2×10^6 cells/mL) and harvested at 1×10^6 cells/mL. THP-1 cells express CCR1 and can be used in CCR1 binding and functional assays.
Monocytes were isolated from human buffy coats using the Miltenyi bead isolation system (Miltenyi, Auburn, Calif.). Briefly, following a Ficoll gradient separation to isolate peripheral blood mononuclear cells, cells were washed with PBS and the red blood cells lysed using standard procedures. Remaining cells were labeled with anti-CD14 antibodies coupled to magnetic beads (Miltenyi Biotech, Auburn, Calif.). Labeled cells were passed through AutoMACS (Miltenyi, Auburn, Calif.) and positive fraction collected. Monocytes express CCR1 and can be used in CCR1 binding and functional assays.
Chemotaxis assays were performed using 5 μm pore polycarbonate, polyvinylpyrrolidone-coated filters in 96-well chemotaxis chambers (Neuroprobe; Gaithersburg, Md.) using chemotaxis buffer (Hank's balanced salt solution (HBSS) and 1% FBS). CCR1 chemokine ligands (i.e., MIP-1α, CCL15/Leukotactin; R&D Systems; Minneapolis, Minn.) are use to evaluate compound mediated inhibition of CCR1 mediated migration. Other chemokines (i.e., SDF-1α; R&D Systems; Minneapolis, Minn.) are used as specificity controls. The lower chamber was loaded with 29 μl of chemokine (i.e., 0.1 nM CCL15/Leukotactin) and varying amounts of compound; the top chamber contained 100,000 THP-1 or monocyte cells in 20 μl. The chambers were incubated 1-2 hours at 37° C., and the number of cells in the lower chamber quantified either by direct cell counts in five high powered fields per well or by the CyQuant assay (Molecular Probes), a fluorescent dye method that measures nucleic acid content, and by measuring with a Spectrafluor Plus (Tecan). The computer program Prism from GraphPad, Inc. (San Diego, Calif.) was used to calculate IC50 values. IC50 values are those compound concentrations required to inhibit the number of cells responding to a CCR1 agonist by 50%.
For `Cc1nc(C(F)(F)F)cn1[C@@H](C)C(=O)N1CCCc2c1cnn2-c1ccc(F)cc1`, the concentration for half-maximal inhibition (IC50) – broadly, the midpoint of a concentration-inhibition curve – was under 1000 nM.
With `O=C(Cc1nccc(C(F)(F)F)n1)N1CCCc2c1cnn2-c1ccc(F)cc1`, the IC50 lay in the range of 2500 to 12500 nM.
Molecule `CCC(C(=O)N1CCCc2c1cnn2-c1ccc(F)cc1)n1cc(C(F)(F)F)nc1C` (stereo not shown) displayed a half-inhibitory concentration (IC50) of under 1000 nM.
As to `O=C(Cc1cccc(C(F)(F)F)c1)N1CCCc2c1cnn2-c1ccc(F)cc1`, the IC50 was under 1000 nM.
In the case of `O=C(Cn1nc(C(F)(F)F)c2c1CCC2)N1CCCc2c1cnn2-c1ccc(F)cc1`, the IC50 is under 1000 nM.
As for `Cc1cc(C(F)(F)F)nn1C(CC(=O)O)C(=O)N1CCCc2c1cnn2-c1ccc(F)cc1` (stereo not shown), the figure is 2500 to 12500 nM.
As for `Cc1c(Cl)c(C(F)(F)F)nn1CC(=O)N1CCCc2c1cnn2-c1ccc(F)cn1`, the figure is under 1000 nM.
As for `O=C(Cn1nc(C(F)(F)F)c2cccnc21)N1CCCc2c1cnn2-c1ccc(F)cc1`, the figure is under 1000 nM; as for `O=C(Cn1nc(C(F)(F)F)c2c1CCOC2)N1CCCc2c1cnn2-c1ccc(F)cc1`, under 1000 nM; as for `COc1cc(-n2ncc3c2CCCN3C(=O)Cn2nc(C(F)(F)F)c(Cl)c2C)ccc1Cl`, under 1000 nM.
The molecule `O=C(Cn1cccn1)N1CCCc2c1cnn2-c1ccc(F)cc1` had an IC50 of over 12500 nM.
`Cc1c(-c2ncon2)cnn1CC(=O)N1CCCc2c1cnn2-c1ccc(F)cc1` had an IC50 of under 1000 nM.
`Cc1c(Cl)c(C2=NCCN2)nn1CC(=O)N1CCCc2c1cnn2-c1ccc(F)cc1` returned an IC50 of under 1000 nM.
In the case of `O=C(Cc1ccc(OC(F)(F)F)cc1)N1CCCc2c1cnn2-c1ccc(F)cc1`, the half-inhibitory concentration (IC50) was under 1000 nM.
In turn, `Cc1c(Cl)c(C(F)(F)F)nn1CC(=O)N1CCCc2c1cnn2-c1ccc(F)cc1F` yielded an IC50 of under 1000 nM.
`O=C(Cc1ccc(Cl)cc1)N1CCCc2c1cnn2-c1ccc(F)cc1`: the IC50 is under 1000 nM.
As for `COCC1CCc2c(cnn2-c2ccc(F)cc2)N1C(=O)Cn1nc(C(F)(F)F)c(Cl)c1C` (stereo not shown), the figure is under 1000 nM.
For `O=C(Cn1cnc(C(F)(F)F)c1)N1CCCc2c1cnn2-c1ccc(F)cc1`, the IC50 is under 1000 nM.
As to `O=C(C(O)c1cccc(C(F)(F)F)c1)N1CCCc2c1cnn2-c1ccc(F)cc1` (stereo not shown), the IC50 was 1000 to 2500 nM.
As for `Cc1nc(C(F)(F)F)nn1CC(=O)N1CCCc2c1cnn2-c1ccc(F)cc1`, the figure is under 1000 nM; as for `Cc1cc(C(F)(F)F)nn1C(CC(N)=O)C(=O)N1CCCc2c1cnn2-c1ccc(F)cc1` (stereo not shown), under 1000 nM; as for `O=C(Cn1nc(-c2ncc[nH]2)c2cccnc21)N1CCCc2c1cnn2-c1ccc(F)cc1`, under 1000 nM.
As for `Cc1nc(C(F)(F)F)nn1C(C)C(=O)N1CCCc2c1cnn2-c1ccc(F)cc1` (stereo not shown), the IC50 was under 1000 nM.
With `Cc1cc(C(F)(F)F)nn1CC(=O)N1CCCc2c1cnn2-c1ccc(F)cc1`, the IC50 was under 1000 nM.
As to `O=C(Cn1cc(Cl)c(C(F)(F)F)n1)N1CCCc2c1cnn2-c1ccc(F)cc1`, the IC50 was under 1000 nM.
Then `O=C(Cc1ccc(C(F)(F)F)c(Cl)c1)N1CCCc2c1cnn2-c1ccc(F)cc1`, with under 1000 nM.
Molecule `Cc1c(Cl)c(C(F)(F)F)nn1C(C(=O)N1CCCc2c1cnn2-c1ccc(F)cc1)C(C)C` (stereo not shown) registered an IC50 of under 1000 nM.
As for `Cc1nc(C(F)(F)F)cn1CC(=O)N1CCCc2c1cnn2-c1ccc(F)cc1`, the figure is under 1000 nM; as for `Cc1nc(C(F)(F)F)cn1[C@@H](C)C(=O)N1CCCc2c1cnn2-c1ccc(Cl)cc1`, under 1000 nM.
As for `O=C(Cc1nc2ccccc2[nH]1)N1CCCc2c1cnn2-c1ccc(F)cc1`, the figure is under 1000 nM; as for `O=C(Cc1nc2ccccc2o1)N1CCCc2c1cnn2-c1ccc(F)cc1`, under 1000 nM; as for `O=C(Cn1nc(C(F)(F)F)c2c1CCCC2)N1CCCc2c1cnn2-c1ccc(F)cc1`, under 1000 nM.
`Cc1c(Cl)c(C(F)(F)F)nn1C(C)C(=O)N1CCCc2c1cnn2-c1ccc(F)cc1` (stereo not shown) registered a 50% inhibitory concentration (IC50) of under 1000 nM.
On to `O=C(Cn1cc(Cl)cn1)N1CCCc2c1cnn2-c1ccc(F)cc1`, for which the IC50 was under 1000 nM.
The molecule `O=C(Cc1nc(C(F)(F)F)c2ccccn12)N1CCCc2c1cnn2-c1ccc(F)cc1` returned an IC50 of under 1000 nM.
In the case of `CC(C(=O)N1CCCc2c1cnn2-c1ccc(F)cc1)c1ccc(Cl)c(C(F)(F)F)c1` (stereo not shown), the IC50 was under 1000 nM.
Molecule `O=C(Cn1ncc2cccnc21)N1CCCc2c1cnn2-c1ccc(F)cc1` registered a half-maximal inhibitory concentration (IC50) of under 1000 nM.
In turn, `Cc1c(Cl)c(-c2ncc[nH]2)nn1CC(=O)N1CCCc2c1cnn2-c1ccc(F)cc1` yielded an IC50 of under 1000 nM.
In turn, `CC[C@H](C(=O)N1CCCc2c1cnn2-c1ccc(F)cc1)n1nc(C(F)(F)F)c(Cl)c1C` displayed an IC50 of under 1000 nM.
Take `Cc1cc(C(F)(F)F)nn1C(CC1CCOCC1)C(=O)N1CCCc2c1cnn2-c1ccc(F)cc1` (stereo not shown): the 50% inhibitory concentration (IC50) was under 1000 nM.
As for `N#Cc1cnn(CC(=O)N2CCCc3c2cnn3-c2ccc(F)cc2)c1`, the figure is 2500 to 12500 nM; as for `Cc1c(Cl)c(-c2ncccn2)nn1CC(=O)N1CCCc2c1cnn2-c1ccc(F)cc1`, under 1000 nM; as for `COC(=O)C1CCc2c(cnn2-c2ccc(F)cc2)N1C(=O)Cn1nc(C(F)(F)F)c(Cl)c1C` (stereo not shown), under 1000 nM.
As for `Cc1cc(C(F)(F)F)nn1C(CO)C(=O)N1CCCc2c1cnn2-c1ccc(F)cc1` (stereo not shown), the figure is under 1000 nM; as for `Cc1c(Cl)c(C(F)F)nn1CC(=O)N1CCCc2c1cnn2-c1ccc(F)cc1`, under 1000 nM.
`Cc1c(Cl)cnn1CC(=O)N1CCCc2c1cnn2-c1ccc(F)cc1` returned an IC50 of under 1000 nM.
On to `O=C(Cc1cccc(OC(F)(F)F)c1)N1CCCc2c1cnn2-c1ccc(F)cc1`, for which the IC50 is 1000 to 2500 nM.
`O=C(Cn1cc(C(F)(F)F)cn1)N1CCCc2c1cnn2-c1ccc(F)cc1` had an IC50 of under 1000 nM.
As for `Cc1c(Cl)c(C#N)nn1CC(=O)N1CCCc2c1cnn2-c1ccc(F)cc1`, the concentration for half-maximal inhibition (IC50) is under 1000 nM.
Turning to `O=C(Cc1ccc(C(F)(F)F)cc1)N1CCCc2c1cnn2-c1ccc(F)cc1`, the IC50 is under 1000 nM.
Molecule `CC[C@@H](C(=O)N1CCCc2c1cnn2-c1ccc(F)cc1)n1nc(C(F)(F)F)c(Cl)c1C` registered an IC50 of under 1000 nM.
`Cc1c(Cl)cccc1CC(=O)N1CCCc2c1cnn2-c1ccc(F)cc1` returned an IC50 of over 12500 nM.
Molecule `Cc1c(Cl)c(S(C)(=O)=O)nn1CC(=O)N1CCCc2c1cnn2-c1ccc(F)cc1` gave a 50% inhibitory concentration (IC50) of under 1000 nM.
Molecule `Nc1ncnc2c1c(-c1ncc[nH]1)nn2CC(=O)N1CCCc2c1cnn2-c1ccc(F)cc1` gave an IC50 of under 1000 nM.
`Cc1c(Cl)c(C(F)(F)F)cn1CC(=O)N1c2cnn(-c3ccc(F)cc3)c2CCC1C` (stereo not shown) showed an IC50 of under 1000 nM.
The molecule `Cc1nc(C(F)(F)F)nn1C(C)C(=O)N1CCCc2c1cnn2-c1ccc(Cl)cc1` (stereo not shown) gave a half-inhibitory concentration (IC50) of under 1000 nM.
Turning to `O=C(Cn1ncc2c1CCCC2)N1CCCc2c1cnn2-c1ccc(F)cc1`, the IC50 was under 1000 nM.
`Cc1cc(C(F)(F)F)nn1C(C)C(=O)N1CCCc2c1cnn2-c1ccc(F)cc1` (stereo not shown): the IC50 is under 1000 nM.
Molecule `O=C(Cc1ccc(Cl)c(C(F)(F)F)c1)N1CCCc2c1cnn2-c1ccc(F)cc1` had an IC50 of under 1000 nM.
`Cc1c(Cl)c(C(C)(C)O)nn1CC(=O)N1CCCc2c1cnn2-c1ccc(F)cc1`: the IC50 was under 1000 nM.
`Cc1c(Cl)c(C(F)(F)F)nn1CC(=O)N1CCCc2c1cnn2-c1ccc(F)cc1` had an IC50 of under 1000 nM.
For `O=C(Cn1cnc(C(F)(F)F)n1)N1CCCc2c1cnn2-c1ccc(F)cc1`, the IC50 is under 1000 nM.
In turn, `O=C(Cn1ccc(C(F)(F)F)n1)N1CCCc2c1cnn2-c1ccc(F)cc1` displayed an IC50 of under 1000 nM.
With `O=C(Cc1ccc(C(F)(F)F)cc1Cl)N1CCCc2c1cnn2-c1ccc(F)cc1`, the concentration for half-maximal inhibition (IC50) is under 1000 nM.
For the molecule `O=C(Cc1ccc(Cl)c(OC(F)(F)F)c1)N1CCCc2c1cnn2-c1ccc(F)cc1`, the IC50 is under 1000 nM.
The molecule `CCC(C(=O)N1CCCc2c1cnn2-c1ccc(F)cc1)n1nc(C(F)(F)F)c(Cl)c1C` (stereo not shown) came in with a half-inhibitory concentration (IC50) of under 1000 nM.
Molecule `CCC(C(=O)N1CCCc2c1cnn2-c1ccc(F)cc1)n1nc(C(C)(C)O)cc1C` (stereo not shown) had an IC50 of under 1000 nM.
`Cc1nc(C(F)(F)F)cn1C(C)C(=O)N1CCCc2c1cnn2-c1ccc(F)cc1` (stereo not shown) gave an IC50 of under 1000 nM.
Then `CC(C)(C(=O)N1CCCc2c1cnn2-c1ccc(F)cc1)c1ccc(Cl)c(C(F)(F)F)c1`, with under 1000 nM; and `CC(C)(O)c1cnn(CC(=O)N2CCCc3c2cnn3-c2ccc(F)cc2)c1`, with 2500 to 12500 nM.
